Several values for one entry are separate records, joined by “and”; a condition that tells them apart may be missing. Equal values may be shown once.
Tests used:
[1] = test system: Phaeoacremonium aleophilum; test: In vitro test in 96-well plates (spore germination, optical density); assay type: cell-based; conditions: pos. control 50 μg, Pal, well row F
Experimental: (§1) The lignin particle-solutions were pipetted in various concentrations (1, 5 and 10 μg/mL) into the 96 wells. Several differing nanoparticles were tested (see FIGS. 10 and 12). Afterwards a spore suspension (in minimal medium) of Esca associated fungi, each fungus separately in three wells, was added to the lignin-particle solution. The final volume was 200 μl per well and 500 spores in those 200 μl (means 2,500 spores/mL). The 96-well plate was incubated at 26° C. for 48 h on a shaker with 120 rpm. The optical density was determined after 24 and 48 h using a lab-bench plate reader (BioRad) at a wavelength of 600 nm.
(§2) […] The optical density of the medium without spores was also measured.
(§3) The results of three replicates were afterwards combined to calculate the average value of all samples (see also the standard deviation in FIG. 10).
(§4) The numbers 1 to 10 and the letters A to H are the labeling of the 96-well plate as well as the grid of the test system. The Numbers 66 to 84 are explained as the tested Lignin-particle solutions, they differ in their composition and fungicide concentration (see also Table 2). The optical density is […] to the activity of the fungicide. […] Therefore higher values of the optical density stand for more sporulation and fungal growths and less biological activity of the lignin formulation (e.g., in A1, A2). A low optical density is characteristic for a high fungal toxicity and bioactivity (see in A5 and A6).

[2] = test system: Phaeomoniella chlamydospora; test: as above; assay type: cell-based; conditions: pos. control 50 μg, Pch, well row E
Experimental: as §1, §2, §3, §4

## CP(=O)(O)CCC(N)C(=O)O (stereo not shown) [Glufosinat-Ammonium]
[1]; first plate block
  optical density measured at 600 nm: 0.220 and 0.212 and 0.206
[1]; second plate block
  optical density measured at 600 nm: 0.228 and 0.219 and 0.204
[2]; first plate block
  optical density measured at 600 nm: 0.192 and 0.180 and 0.200
[2]; second plate block
  optical density measured at 600 nm: 0.201 and 0.192 and 0.203
